This note sets out measurements from patent US8153397B2 (priority 1993, dated 2012).

The target in the assay is rBoNT/A LC (Clostridium botulinum, UniProt P0DPI0). The format is biochemical.
Sequence of rBoNT/A LC (P0DPI0 3-448, added parts left off): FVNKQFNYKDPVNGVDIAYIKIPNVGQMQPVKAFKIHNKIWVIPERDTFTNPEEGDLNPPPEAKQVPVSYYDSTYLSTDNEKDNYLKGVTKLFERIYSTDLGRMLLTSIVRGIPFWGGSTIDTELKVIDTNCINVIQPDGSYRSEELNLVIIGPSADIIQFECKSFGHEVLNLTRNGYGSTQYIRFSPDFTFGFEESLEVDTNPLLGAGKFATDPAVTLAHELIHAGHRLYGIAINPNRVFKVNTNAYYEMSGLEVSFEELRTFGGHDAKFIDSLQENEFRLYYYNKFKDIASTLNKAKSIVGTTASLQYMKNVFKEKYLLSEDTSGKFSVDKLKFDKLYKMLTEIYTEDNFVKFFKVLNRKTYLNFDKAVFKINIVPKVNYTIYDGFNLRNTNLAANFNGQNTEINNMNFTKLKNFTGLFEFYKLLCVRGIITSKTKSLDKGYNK

Turning to `N[C@@H](CS)C(=O)O` [L-Cysteine], the “% Activity” value is recorded as 20% and the “effect on activity of the rBoNT/A LC” value is listed as “inhibited the activity to various extents”. With `[Cl-].[Cl-].[Mg+2]` [MgCl2], the “% Activity” value was determined as 90%.

As to `O=C(O)CN(CCN(CC(=O)O)CC(=O)O)CC(=O)O` [EDTA], the “% Activity” value is reported as 00% and the “effect on activity of the rBoNT/A LC” value is reported as “completely inhibited”. For the compound `[Ca+2].[Cl-].[Cl-]` [CaCl2], the “% Activity” value is on record as 75%.

As to `[Cl][Fe][Cl]` [FeCl2], the “% Activity” value worked out at 35%. Take `O=S(=O)([O-])[O-].[Cu+2]` [CuSO4]: the “% Activity” value is given as 95%.

Turning to `O[C@H](CS)[C@@H](O)CS` [Dithioerythreitol], the “% Activity” value came out at 60% and the “effect on activity of the rBoNT/A LC” value is given as “inhibited the activity to various extents”.

`N[C@@H](CCC(=O)N[C@@H](CS)C(=O)NCC(=O)O)C(=O)O` [Glutathione, reduced]: the “% Activity” value is listed as 75% and the “effect on activity of the rBoNT/A LC” value was “inhibited the activity to various extents”. As for `OCCS` [β-Mercaptoethanol], the “% Activity” value is recorded as 120% and the “effect on activity of the rBoNT/A LC” value is on record as “stimulated the activity”. The like results for `[Cl][Mn][Cl]` [MnCl2] were, in that order, 40% and “inhibited the LC reaction to various extents”. `NC(=O)CI` [Iodoacetamide]: the “% Activity” value is given as 80%. `[Cl-].[Cl-].[Zn+2]` [ZnCl2]: the stimulation of activity is listed as 5%-10%. As for `[Cl][Hg][Cl]` [Mercuric chloride], the “% Activity” value is 00% and the “effect on activity of the rBoNT/A LC” value was “completely abolished”. Taken in the same sequence, the figures for `O[C@H](CS)[C@H](O)CS` [Dithiothreitol] were 45% and “significantly inhibited”. Take `N[C@@H](CCC(=O)N[C@@H](CSN=O)C(=O)NCC(=O)O)C(=O)O` [S-Nitrosoglutathione]: the “% Activity” value came to 55%.

With `O=C(O)c1cc[c]([Hg][Cl])cc1` [p-C1-Mercuribenzoate], the “% Activity” value was found to be 00% and the “effect on activity of the rBoNT/A LC” value is on record as “completely abolished”. Consider CoCl2, for which the “% Activity” value was 90%. On to `O=S(=O)([O-])[O-].[Ni+2]` [NiSO4], for which the “% Activity” value is given as 55% and the “effect on activity of the rBoNT/A LC” value was “inhibited the LC reaction to various extents”.
